Experimental findings from US11279733B2, “Peptide antibiotics” (priority 2017, dated 2022) are described below.

Data set [1] relates to P. aeruginosa GN_043, PmxR. A digest of the protocol: (§1)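 Mid-log cultures grown in Mueller Hinton broth at 37° C were tested by 2-fold broth microdilution at 5×10^5 CFU/mL final. Compounds were dissolved in water and tested over a final range of 32 to 0.015 μg/mL.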
The test system of data set [2] is K. pneumoniae ATCC BAA-2146, NDM-1 pos. Conditions: ATCC BAA-2146. An outline of the steps: as §1
The test system of data set [3] is K. pneumoniae ATCC 700603, MDR. Conditions: ATCC 700603. A digest of the protocol: as §1
For data set [4], the system named is K. pneumoniae GN_102 PmxR. Conditions: GN 102 PmxR. An outline of the steps:
as §1

The next data set has as its system A. baumannii ATCC 19606. Conditions: ATCC 19606. A digest of the protocol: as §1
The subject of data set [5] is K. pneumoniae GN_106, PmxR. To be noted: GN 106, PmxR. A digest of the protocol:
as §1

The next data set has as its system P. aeruginosa ATCC 27853. Conditions: ATCC 27853. An outline of the steps:
as §1

Data set [6] relates to P. aeruginosa GN_105, PmxR. Conditions: GN 105, PmxR. An outline of the steps:
as §1

The next data set concerns E. coli ATCC 25922. To be noted: ATCC 25922. A digest of the protocol:
as §1

For data set [7], the system named is S. aureus ATCC 25923, MSSA. Conditions: ATCC 25923. An outline of the steps: as §1
A further data set has as its system K. pneumoniae ATCC 13883. To be noted: ATCC 13883. A digest of the protocol: as §1
A further data set concerns A. baumannii GN_093 PmxR. Conditions: GN 093 PmxR. An outline of the steps:
as §1

Data set [8] can be described thus: in vitro. Conditions: human. An outline of the steps: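 Cells were seeded at 4000 per well and allowed to attach for 24 h at 37 °C, 5% CO2, then exposed to compounds for 24 h. Resazurin (5 μM) was added for 2 h at 37 °C and fluorescence read at 560/590 nm. CC50 was derived by curve fitting of dose-dependent growth inhibition.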
Data set [9] in a line: in vitro. To be noted: human. Here is the method: Cytotoxicity of the synthesised peptides was evaluated by comparison with commercially available colistin (polymyxin E), polymyxin B (Sigma chemical Co., St. Louis, Mo., U.S.A.) and synthetic octapeptin C4 by conducting lactate dehydrogenase (LDH) assay. CC50 values calculated based on curve fitting of dose dependent inhibition of cell growth represented the cytotoxicity of the peptide. Human kidney 2 (HK2) cells were seeded as 2000 cells per well in a 384 well cell culture plate in a final volume of 20 μL in DMEM/F12 medium (Invitrogen #11330057), in which 10% of FBS was added. Cells were incubated for 24 hours at 37° C., 5% CO2 to allow cells to attach to the plates. Similar conditions were employed for HEK293 and HepG2 cytotoxicity assays.
Cytotoxicity to HEK293 and HepG2 cells was determined using the resazurin assay (McMillian, M. K.; Li, L.; Parker, J. B.; Patel, L.; Zhong, Z.; Gunnett, J. W.; Powers, W. J.; Johnson, M. D. An improved resazurin-based cytotoxicity assay for hepatic cells; Cell Biol. Toxicol. 2002, 18, 157-173; O'Brien, J.; Wilson, I.; Orton, T.; Pognan, F. Investigation of the Alamar Blue (resazurin) fluorescent dye for the assessment of mammalian cell cytotoxicity. Eur. J. Biochem. 2000, 267, 5421-5426). In brief, HEK293 and HepG2 cells were seeded at 4000 cells/well in black-wall, clear-bottom 384-well plates (Corning, Australia) and incubated for 24 h at 37° C., 5% CO2. Compounds were then added into each well. After 24 h incubation, 5 μM resazurin was added per well and incubated at 37° C. for 2 h. Fluorescence intensity was then read using a Polarstar Omega with excitation/emission 560/590. The data was then analyzed using GraphPad Prism 6 software. CC50 values were determined using GraphPad Prism 6 software (Inc. La Jolla, Calif.).
The source holds these as a separate data set.

In brackets after ≈: the same amount, converted by molar mass. Starred links: 1 amine or outer side, 2 acyl side, 3 side chain; linkers in the order of their positions; H or OH if unused. Positions of bridges follow the written chain, without caps; N, C: chain ends. Non-standard residues stand in square brackets, D forms with d. Residues, ends and D or L forms follow the SMILES beside them. *: point of attachment. Decanoyl(3R-OH) = CCCCCCC[C@@H](O)CC(=O)*; azaDab = NCCN(N[*:1])C(=O)[*:2]; dDab = NCC[C@@H](N)C(=O)O; Dab = NCC[C@H](N)C(=O)O Some results are limits rather than exact numbers.

For `CCCCCCC[C@@H](O)CC(=O)N[C@H](CCN)C(=O)N[C@H]1CCNC(=O)[C@H](CC(C)C)NC(=O)[C@H](CCN)NC(=O)[C@H](CCN)NC(=O)[C@H](CC(C)C)NC(=O)[C@@H](Cc2ccccc2)NC(=O)N(CCN)NC1=O` [compound 8636, 3(R)OH-nC9CO-D-Dab-cyc[L-Dab-azaDAB-D-Phe-L-Leu-L-Dab-L-Dab-L-Leu]] ({Decanoyl(3R-OH)}-[dDab][Dab][azaDab][dF]L[Dab][Dab]L; lactam 2-C), the “MIC, P. aeruginosa FADDI-PA070, PmxR” value in data set [1] (strain name as in Table 11) is >32 µg/mL. Also, the “MIC K. pneumoniae ATCC BAA-2146, NDM-1 pos” value in data set [2] was >32 µg/mL. Moreover, the “MIC K. pneumoniae ATCC 700603, MDR” value in [3] stood at 16 µg/mL (≈ 15.3 µM). Also, the “MIC K. pneumoniae Cl Koprana 10065 0661:1 PmxR” value in data set [4] is >32 µg/mL. For the same compound, the “MIC A. baumannii ATCC 19606” value against A. baumannii ATCC 19606 was >32 µg/mL. In data set [5], the “MIC K. pneumoniae Cl 183-16357-20352, PmxR” value was >32 µg/mL. For the same compound, in the data set with P. aeruginosa ATCC 27853, the “MIC P. aeruginosa ATCC 27853” value came to 4 µg/mL (≈ 3.83 µM). The “MIC P. aeruginosa PA9704, PmxR” value in data set [6] is >32 µg/mL. Moreover, the “MIC E. coli ATCC 25922” value in the data set on E. coli ATCC 25922 is 16 µg/mL (≈ 15.3 µM). For the same compound, the “MIC S. aureus ATCC 25923, MSSA” value in data set [7] came to 32 µg/mL (≈ 30.6 µM). Moreover, the “MIC K. pneumoniae ATCC 13883” value with K. pneumoniae ATCC 13883 is >32 µg/mL. In addition, the “MIC A. baumannii Cl Ptyela 10073 4512:2, PmxR” value in the data set with A. baumannii GN_093 PmxR was >32 µg/mL. Further, the CC50 at 24 h in the data set “in vitro [8]” and in “in vitro [9]” was > 300 µM throughout.
For the compound `CCCCCCC[C@@H](O)CC(=O)N[C@H](CCN)C(=O)N[C@H]1CCNC(=O)[C@H](CC(C)C)NC(=O)[C@H](CCN)NC(=O)[C@H](CCN)NC(=O)[C@@H](CC(C)C)NC(=O)[C@H](Cc2ccccc2)NC(=O)[C@H](CCN)NC1=O` [compound 8640, 3(R)OH-nC9CO-D-Dab-cyc[L-Dab-L-DAB-L-Phe-D-Leu-L-Dab-L-Dab-L-Leu]] ({Decanoyl(3R-OH)}-[dDab][Dab][Dab]F[dL][Dab][Dab]L; lactam 2-C), the “MIC P. aeruginosa GN_043, PmxR” value in data set [1] (P. aeruginosa GN_043, PmxR) was >32 µg/mL. Also, the “MIC K. pneumoniae ATCC BAA-2146, NDM-1 pos” value in [2] is >32 µg/mL. Moreover, the “MIC K. pneumoniae ATCC 700603, MDR” value in data set [3] came out at 32 µg/mL (≈ 30.6 µM). Moreover, in data set [4], the “MIC K. pneumoniae GN_102 PmxR” value was >32 µg/mL. Moreover, the “MIC A. baumannii ATCC 19606” value with A. baumannii ATCC 19606 is >32 µg/mL. Also, the “MIC K. pneumoniae GN_106, PmxR” value in data set [5] is >32 µg/mL. In addition, the “MIC P. aeruginosa ATCC 27853” value with P. aeruginosa ATCC 27853 is 8 µg/mL (≈ 7.66 µM). Besides, the “MIC P. aeruginosa GN_105, PmxR” value in [6] is >32 µg/mL. In the data set on E. coli ATCC 25922, the “MIC E. coli ATCC 25922” value amounted to 16 µg/mL (≈ 15.3 µM). Moreover, the “MIC S. aureus ATCC 25923, MSSA” value in data set [7] came to 32 µg/mL (≈ 30.6 µM). In the data set on K. pneumoniae ATCC 13883, the “MIC K. pneumoniae ATCC 13883” value is >32 µg/mL. Further, the “MIC A. baumannii GN_093 PmxR” value in the data set with A. baumannii GN_093 PmxR is >32 µg/mL. Moreover, the figures for the CC50 at 24 h in “in vitro [8]” and in “in vitro [9]” were > 300 µM and ≥ 300 µM, respectively.
